Converted amounts (≈) assume the structure as drawn. Like-named read-outs stand apart in the source and are kept apart here. Square brackets hold non-standard residues; d marks the D form. Peptide text beside a SMILES is read from it.
Columns and labels:
[1] = Cytotoxicity assay (resazurin); assay type: cell-based; details: human
Experimental: Normal human cells used were BEAS-2B (ATCC CRL-9609), IMR-90 (ATCC CCL-186) and Human Umbilical Vein Endothelial Cells (HUVEC) (from Sigma-Aldrich) corresponding respectively to human normal lung epithelial, normal lung fibroblast cells and human normal endothelial cells. All cells except HUVEC cells were cultured in Dulbecco's modified essential medium (DMEM) supplemented with 10% fetal calf serum (FCS), 1% L-glutamine and 1% antibiotics (all from Invitrogen). HUVEC cells were cultured in specific endothelial media (from Sigma Aldrich). Cells were seeded onto […] maintained in a 5% CO2 incubator at 37 °C. Cells grown on 25 cm^2 flasks were detached using trypsin-EDTA solution (from Thermofisher), counted using Mallassez counting chamber and seeded into 96-well cell culture plates (Greiner bio-one) at approximately 10,000 cells per well. The cells were left to grow for 48-72 h at 37 °C in a 5% CO2 incubator until they reached confluence. Plates were then aspirated and increasing concentrations of peptides diluted in culture media were added to the cells for 48 h at 37 °C in a 5% CO2 incubator. At the end of the incubation, wells were emptied and cell viability was evaluated using Resazurin based in vitro toxicity assay kit (from Sigma-Aldrich) following manufacturer's instructions. Briefly, Resazurin stock solution was diluted 1:10 in sterile PBS containing calcium and magnesium (PBS, pH 7.4) and empty wells were filled with 100 µL of the diluted solution. After 4 h incubation at 37 °C, fluorescence intensity was measured using microplate reader (Synergy Mx, Biotek) with an excitation wavelength of 530 nm and an emission wavelength of 590 nm. The fluorescence values were normalized by the controls (buffer treated cells) and expressed as percent viability. The IC50 values of peptides on cell viability (i.e. the concentration of derivative causing a reduction of 50% of cell viability) were determined using GraphPad® Prism 7 software. t-Test and two way ANOVA analyses were used to address the significant differences between mean values with significance set at p < 0.05.

Pseudomonas aeruginosa = assay: Stability of the peptides to proteases and human serum (MIC of digested peptides); assay type: in vitro ADME; details: for MIC (µM) Serum4h: after 4 h at 37°C in human serum; for MIC (µM) Serum4h / MIC (µM) Chymotrypsin / MIC (µM) Pepsin / MIC (µM) Trypsin / MIC (µM) Serum24h / MIC (µM) Control: against Pseudomonas aeruginosa; for MIC (µM) Chymotrypsin: after 4 h at 37°C with chymotrypsin; for MIC (µM) Chymotrypsin / MIC (µM) Trypsin: pH 7; for MIC (µM) Pepsin: after 4 h at 37°C with pepsin, pH2; for MIC (µM) Trypsin: after 4 h at 37°C with trypsin; for MIC (µM) Serum24h: after 24 h at 37°C in human serum; for stability to proteases and human serum: pepsin, trypsin, chymotrypsin; for MIC (µM) Control: peptide incubated in PBS, not treated with proteases
Experimental: In order to evaluate the stability of the peptides to condition they will face in vivo, their resistance to proteases and human serum was evaluated (Oyama et al., 2017 Biofilms Microbiomes, Dec 1;3:33). Briefly, one volume of peptides (at 1 mM) was diluted in one volume of proteases (Pepsin, Trypsin, Chymotrypsin, Papain all from Sigma Aldrich and diluted at 2 mg/ml in HCl 10 mM pH2 for Pepsin, PBS pH 7 for Trypsin and Chymotrysin and PBS pH 6 for Papain) or human serum (Sigma Aldrich H4522). Peptides incubated in the same conditions in PBS were used as controls. After 4 h (for proteases) and 4 or 24 h (for human serum) of incubation at 37°C, PMSF was added to the reaction mixture at a final concentration of 100 µM to stop the digestion. MIC of the digested peptides were then determined as explained above.

MDA-MB-231 = assay: Antitumor / antiproliferative activity (resazurin); assay type: cell-based, human; details: breast cancer cells; 5,000 cells/well; 48 h; read-out: IC50 antiproliferative effect MDA-MB-231
Experimental: (§1) Human cancer cell lines (Mia PaCa-2 (CRL-1420), PC-3 (CRL-1435), MDA-MB-231 (HTB-26)) and normal lung fibrobasts (BEAS-2B (ATCC CRL-9609) and IMR-90 (ATCC CCL-186)) were obtained from American Type Culture Collection (ATCC). HUVEC cells were obtained from Sigma Aldrich and were grown in defined all-in-one ready to use endothelial cell growth medium (Sigma Aldrich). Other cells were cultured in Dulbecco's modified Eagle's medium (DMEM, Gibco Life Technologies) supplemented with 10% heat-inactivated fetal calf serum (FCS, Lonza) at 37 °C in an incubator containing 5% CO2. Cells were sub-cultured in new media every 3-4 days. Antiproliferative / antitumor effects of the peptides were measured as previously described (Borie et al., Eur J Med Chem. 2018;148:306-313). Briefly, cells were detached from growing flask using trypsin, cells were counted and seeded in 96 well-plates in the growth media at an initial cell density of 5000 cells/well. Cells were left for 4 h to attach to the wells. Cells were then treated with increasing concentrations of peptides diluted in culture media. After 48 h incubation at 37 °C in a 5% CO2 incubator, wells were emptied and cell number was evaluated using Resazurin based in vitro toxicity assay kit (from Sigma-Aldrich) following manufacturer's instructions. Briefly, Resazurin stock solution was diluted 1:10 in sterile PBS containing calcium and magnesium (PBS, pH 7.4) and empty wells were filled with 100 µL of the diluted solution. After 4 h incubation at 37 °C, fluorescence intensity was measured using microplate reader (Synergy Mx, Biotek) with an excitation wavelength of 530 nm and an emission wavelength of 590 nm. The fluorescence values were normalized by the controls (buffer treated cells) and expressed as per-cent viability. The IC50 values of peptides on cell division / proliferation (i.e. the concentration of derivative causing a reduction of 50% of cell division) were determined using GraphPad ® Prism 7 software. t-Test and two way ANOVA analyses were used to address the significant differences between mean values with significance set at p < 0.05.

MiaPaCa-2 = assay: Antitumor / antiproliferative activity (resazurin); assay type: cell-based, human; details: pancreas cancer cells; 5,000 cells/well; 48 h; read-out: IC50 antiproliferative effect MiaPaCa-2
Experimental: as §1

PC-3 = assay: Antitumor / antiproliferative activity (resazurin); assay type: cell-based, human; details: prostate cancer cells; 5,000 cells/well; 48 h; read-out: IC50 antiproliferative effect PC-3
Experimental: as §1

[2] = system: B. subtilis (Nisin-resistant)
M. smegmatis = details: 72 h
[3] = BEAS-2B normal lung epithelial cells, normal lung epithelium, read-out: Cytotoxicity IC50 (µM) BEAS
[4] = HUVEC (human umbilical vein endothelial cells), normal endothelium, read-out: Cytotoxicity IC50 (µM) HUVEC
[5] = IMR-90 normal lung fibroblast cells, read-out: Cytotoxicity IC50 (µM) IMR90

CC[C@@H](C)[C@@H](N)C(=O)N[C@H](CC(C)C)C(=O)N[C@H](CCCCN)C(=O)N[C@H](C)C(=O)N[C@@H](C(=O)N[C@H](CCCCN)C(=O)N[C@H](CCCCN)C(=O)N[C@H](CC(C)C)C(=O)N[C@H](CC(C)C)C(=O)N[C@H](CCCCN)C(N)=O)[C@H](C)CC [(i1k10*) enantio, ilkaikkllk] (H-[dI][dL][dK][dA][dI][dK][dK][dL][dL][dK]-NH2)
CC50 at 48 h [1, 3]: 726 µM
CC50 at 48 h [1, 4]: 683 µM
CC50 at 48 h [1, 5]: 365 µM
MIC (µM) Serum4h (Pseudomonas aeruginosa): 1.5 µM
MIC (µM) Chymotrypsin (Pseudomonas aeruginosa): 1.5 µM
MIC (µM) Pepsin (Pseudomonas aeruginosa): 1.5 µM
MIC (µM) Trypsin (Pseudomonas aeruginosa): 1.5 µM
MIC (µM) Serum24h (Pseudomonas aeruginosa): 0.75 µM
stability to proteases and human serum (Pseudomonas aeruginosa): not affected
MIC (µM) Control (Pseudomonas aeruginosa): 1.5 µM
IC50 (MDA-MB-231): 61.7 µM
IC50 (MiaPaCa-2): 13.4 µM
IC50 (PC-3): 39.3 µM
MBC (µM) P. aeruginosa (P. aeruginosa): 3.12 µM (≈ 3.64 µg/mL)
MIC (µM) P. aeruginosa (P. aeruginosa): 3.125 µM (≈ 3.65 µg/mL)
MIC PA (P. aeruginosa): 3.125 µM (≈ 3.65 µg/mL)
MBC (µM) L. lactis (L. lactis): 3.12 µM (≈ 3.64 µg/mL)
MIC (µM) L. lactis (L. lactis): 1.5 µM (≈ 1.75 µg/mL)
MBC (µM) B. subtilis (Nisin-resistant) [2]: 12.5 µM (≈ 14.6 µg/mL)
MIC (µM) B. subtilis (Nisin-resistant) [2]: 12.5 µM (≈ 14.6 µg/mL)
MBC (µM) A. gandavensis (A. gandavensis): 1.5 µM (≈ 1.75 µg/mL)
MIC (µM) A. gandavensis (A. gandavensis): 1.5 µM (≈ 1.75 µg/mL)
MBC (µM) E. coli EHEC K88 (E. coli EHEC K88): 50 µM (≈ 58.3 µg/mL)
MIC (µM) E. coli EHEC K88 (E. coli EHEC K88): 50 µM (≈ 58.3 µg/mL)
MBC (µM) P. aeruginosa FQR (P. aeruginosa FQR): 100 µM (≈ 117 µg/mL)
MIC (µM) P. aeruginosa FQR (P. aeruginosa FQR): 12.5 to 25 µM
MBC (µM) P. aeruginosa 01 (P. aeruginosa 01): 50 µM (≈ 58.3 µg/mL)
MIC (µM) P. aeruginosa 01 (P. aeruginosa 01): 12.5 µM (≈ 14.6 µg/mL)
MBC (µM) S. flexneri (S. flexneri): 12.5 µM (≈ 14.6 µg/mL)
MIC (µM) S. flexneri (S. flexneri): 12.5 µM (≈ 14.6 µg/mL)
MBC (µM) C. farmeri (C. farmeri): 50 µM (≈ 58.3 µg/mL)
MIC (µM) C. farmeri (C. farmeri): 12.5 µM (≈ 14.6 µg/mL)
MBC (µM) C. rodentium (C. rodentium): 50 µM (≈ 58.3 µg/mL)
MIC (µM) C. rodentium (C. rodentium): 50 µM (≈ 58.3 µg/mL)
MBC (µM) S. enterica (S. enterica): 25 µM (≈ 29.2 µg/mL)
MIC (µM) S. enterica (S. enterica): 50 µM (≈ 58.3 µg/mL)
MBC (µM) V. alginolyticus (V. alginolyticus): 1.5 µM (≈ 1.75 µg/mL)
MIC (µM) V. alginolyticus (V. alginolyticus): 0.78 to 1.56 µM
MBC (µM) H. pylori (H. pylori): 50 µM (≈ 58.3 µg/mL)
MIC (µM) H. pylori (H. pylori): 50 µM (≈ 58.3 µg/mL)
MIC (µM) M. smegmatis (M. smegmatis): 6.25 µM (≈ 7.29 µg/mL)

CC[C@@H](C)[C@@H](N)C(=O)N[C@H](CC(C)C)C(=O)N[C@H](CCCCN)C(=O)N[C@H](C)C(=O)N[C@@H](C(=O)N[C@H](CCCCN)C(=O)N[C@H](CCCCN)C(=O)N[C@H](CC(C)C)C(=O)N[C@H](CC(C)C)C(=O)N[C@H](CCCCN)C(=O)N[C@H](CC(N)=O)C(N)=O)[C@H](C)CC [LTX-D (gallicune-1), ilkaikkllkn] (H-[dI][dL][dK][dA][dI][dK][dK][dL][dL][dK][dN]-NH2)
CC50 at 48 h [1, 3]: 843 µM
CC50 at 48 h [1, 4]: 869 µM
CC50 at 48 h [1, 5]: 653 µM
MIC (µM) Serum4h (Pseudomonas aeruginosa): 25 µM
MIC (µM) Chymotrypsin (Pseudomonas aeruginosa): 25 µM
MIC (µM) Pepsin (Pseudomonas aeruginosa): 25 µM
MIC (µM) Trypsin (Pseudomonas aeruginosa): 25 µM
MIC (µM) Serum24h (Pseudomonas aeruginosa): 12.5 µM
stability to proteases and human serum (Pseudomonas aeruginosa): not affected
MIC (µM) Control (Pseudomonas aeruginosa): 25 µM
IC50 (MDA-MB-231): 56.2 µM
IC50 (MiaPaCa-2): 6.51 µM
IC50 (PC-3): 33.7 µM
MBC (µM) P. aeruginosa (P. aeruginosa): 1.5 µM (≈ 1.92 µg/mL)
MIC (µM) P. aeruginosa (P. aeruginosa): 1.5 µM (≈ 1.92 µg/mL)
MIC PA (P. aeruginosa): 1.5 µM (≈ 1.92 µg/mL)
MIC (µM) E. coli (E. coli): 6.25 µM (≈ 8 µg/mL)
MBC (µM) L. lactis (L. lactis): 1.5 µM (≈ 1.92 µg/mL)
MIC (µM) L. lactis (L. lactis): 1.5 µM (≈ 1.92 µg/mL)
MBC (µM) B. subtilis (Nisin-resistant) [2]: 6.25 µM (≈ 8 µg/mL)
MIC (µM) B. subtilis (Nisin-resistant) [2]: 6.25 µM (≈ 8 µg/mL)
MBC (µM) A. gandavensis (A. gandavensis): 1.5 µM (≈ 1.92 µg/mL)
MIC (µM) A. gandavensis (A. gandavensis): 1.5 µM (≈ 1.92 µg/mL)
MBC (µM) E. coli EHEC K88 (E. coli EHEC K88): 50 µM (≈ 64 µg/mL)
MIC (µM) E. coli EHEC K88 (E. coli EHEC K88): 50 µM (≈ 64 µg/mL)
MBC (µM) P. aeruginosa FQR (P. aeruginosa FQR): 12.5 µM (≈ 16 µg/mL)
MIC (µM) P. aeruginosa FQR (P. aeruginosa FQR): 6.25 to 12.5 µM
MBC (µM) P. aeruginosa 01 (P. aeruginosa 01): 25 µM (≈ 32 µg/mL)
MIC (µM) P. aeruginosa 01 (P. aeruginosa 01): 6.25 µM (≈ 8 µg/mL)
MBC (µM) S. flexneri (S. flexneri): 12.5 µM (≈ 16 µg/mL)
MIC (µM) S. flexneri (S. flexneri): 12.5 µM (≈ 16 µg/mL)
MBC (µM) C. farmeri (C. farmeri): 6.25 µM (≈ 8 µg/mL)
MIC (µM) C. farmeri (C. farmeri): 6.25 µM (≈ 8 µg/mL)
MBC (µM) C. rodentium (C. rodentium): 25 µM (≈ 32 µg/mL)
MIC (µM) C. rodentium (C. rodentium): 12.5 µM (≈ 16 µg/mL)
MBC (µM) S. enterica (S. enterica): 25 µM (≈ 32 µg/mL)
MIC (µM) S. enterica (S. enterica): 25 µM (≈ 32 µg/mL)
MBC (µM) V. alginolyticus (V. alginolyticus): 0.78 µM (≈ 0.999 µg/mL)
MIC (µM) V. alginolyticus (V. alginolyticus): 0.78 µM (≈ 0.999 µg/mL)
MBC (µM) H. pylori (H. pylori): 50 µM (≈ 64 µg/mL)
MIC (µM) H. pylori (H. pylori): 50 µM (≈ 64 µg/mL)
MIC (µM) M. smegmatis (M. smegmatis): 25 µM (≈ 32 µg/mL)
